The values below come from patent US12209079B2 (GENERAL INCORPORATED ASSOCIATION PHARMA VALLEY PROJECT …, priority 2017, dated 2025).

Where a name gives a salt, the structure may show the parent alone.

One assay has as its target T1, IDO in A431 cells (Homo sapiens, UniProt P14902).
T1 construct: endogenous in cells; host or cells: A431 cells, IFN-γ stimulated
Briefly: IDO cell-based assay, kynurenine production in IFN-γ stimulated A431 cells. The note with it: A-431, 24 h; final concentration of the compound 10 μM; rate relative to culture without compound. The method in brief:
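A431 cells were cultured 24 h, then preincubated 1 h with compound in medium containing 178 μM L-tryptophan, and stimulated with IFN-γ (diluted to 100 ng/mL before addition) for 24 h. Kynurenine was measured by p-dimethylbenzaldehyde absorbance at 460 nm, background-subtracted, and expressed as % production versus no-compound control.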

For assay [1], the target named is rhIDO (recombinant human IDO) (Homo sapiens, UniProt P14902). Briefly: Enzyme assay using rhIDO (rate of kynurenine production). Type of assay: biochemical. The note with it: 2 h; final concentration of the compound 10 μM; rate relative to reaction without compound; read-out: rhIDO-mediated kynurenine production. A digest of the protocol:
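rhIDO preincubated with compound 10 min at 37 °C in phosphate buffer with ascorbate, methylene blue and catalase; started with 2 mM tryptophan solution (stock) and run 120 min at 37 °C. Stopped with TCA and heated to convert N-formylkynurenine; kynurenine read at 490 nm after p-dimethylbenzaldehyde, background-subtracted, as % of no-compound control.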

The target in assay [2] is rhTDO (recombinant human TDO) (Homo sapiens, UniProt P48775). Briefly: Enzyme assay using rhTDO (rate of kynurenine production). The class given is biochemical. The note with it: 2 h; final concentration of the compound 10 μM; rate relative to reaction without compound; read-out: rhTDO-mediated kynurenine production. A digest of the protocol: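 Kynurenine output, as percent of untreated control after background subtraction, read at 490 nm with p-dimethylbenzaldehyde following TCA quench and 15 min heating at 50 °C. Reaction: rhTDO with compound, 10 min preincubation then 120 min at 37 °C, started by 20 mM tryptophan stock, in phosphate/ascorbate/methylene blue/catalase.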
Sequence of rhTDO (recombinant human TDO) (P48775 whole entry): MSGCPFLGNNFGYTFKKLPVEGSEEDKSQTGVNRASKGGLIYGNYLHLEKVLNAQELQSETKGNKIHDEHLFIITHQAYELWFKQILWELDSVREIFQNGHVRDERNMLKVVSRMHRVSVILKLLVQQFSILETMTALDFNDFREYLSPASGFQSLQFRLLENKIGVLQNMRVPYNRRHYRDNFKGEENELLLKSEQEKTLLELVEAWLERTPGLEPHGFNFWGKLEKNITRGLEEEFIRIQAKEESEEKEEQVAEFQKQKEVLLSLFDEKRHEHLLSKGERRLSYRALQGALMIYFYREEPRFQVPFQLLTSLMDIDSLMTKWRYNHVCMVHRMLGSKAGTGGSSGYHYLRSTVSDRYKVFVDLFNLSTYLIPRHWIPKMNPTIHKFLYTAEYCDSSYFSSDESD

The target of a further assay is T2, TDO in A172 cells (Homo sapiens, UniProt P48775).
T2 construct: endogenous in cells; host or cells: A172 cells
T2 sequence (P48775 whole entry): as above
Briefly: TDO cell-based assay, kynurenine production in A172 cells. The following applies: A 172; final concentration of the compound 10 μM; rate relative to culture without compound. A digest of the protocol:
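A172 cells were preincubated with compound for 1 h, then given L-tryptophan (final 524 μM) for 24 h at 37 °C. Kynurenine was read at 460 nm after p-dimethylbenzaldehyde/TCA reagent, background-subtracted, and expressed as % of no-compound production.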

T1 sequence (P14902 whole entry): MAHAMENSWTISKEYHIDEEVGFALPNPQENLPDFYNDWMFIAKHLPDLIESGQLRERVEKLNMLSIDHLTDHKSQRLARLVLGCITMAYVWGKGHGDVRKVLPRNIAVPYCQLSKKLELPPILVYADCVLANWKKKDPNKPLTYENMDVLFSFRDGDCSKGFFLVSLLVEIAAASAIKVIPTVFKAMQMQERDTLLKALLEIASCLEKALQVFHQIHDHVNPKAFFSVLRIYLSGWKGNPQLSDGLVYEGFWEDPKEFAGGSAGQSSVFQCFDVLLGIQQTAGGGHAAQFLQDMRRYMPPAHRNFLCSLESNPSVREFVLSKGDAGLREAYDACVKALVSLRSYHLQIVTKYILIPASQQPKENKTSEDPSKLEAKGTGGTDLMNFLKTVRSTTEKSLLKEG
Sequence of rhIDO (recombinant human IDO) (P14902 whole entry): as above

Regarding `N=C(N)[Se]Cc1nc2ccccc2nc1C[Se]C(=N)N` [Compound 112, Quinoxaline-2,3-diylbis(methylene) dicarbamimidoselenoate dihydrobromide], the remaining activity at 10 µM is -2% at IDO in A431 cells, 94% in assay [1], 90% in assay [2] and 5% at TDO in A172 cells.
The like results for `N#Cc1ccc(CNC(=O)c2ccc(Br)cc2C[Se]C(=N)N)cc1` [Compound 113, 5-Bromo-2-((4-cyanobenzyl)carbamoyl)benzyl carbamimidoselenoate hydrobromide] were, in that order, 73%, 92%, 58% and 44%.
Regarding `N=C(N)SCc1cc(Br)ccc1C(=O)NCc1ccc(C(F)(F)F)cc1` [Compound 114, 5-Bromo-2-((4-(trifluoromethyl)benzyl)carbamoyl)benzyl carbamimidothioate hydrobromide], the remaining activity at 10 µM on IDO in A431 cells came to 17%; in assay [1], 98%; in assay [2], 36%; at TDO in A172 cells it was 37%.
Regarding `COCCNC(=O)c1ccc(Br)cc1CSC(=N)N` [Compound 115, 5-Bromo-2-((2-methoxyethyl)carbamoyl)benzyl carbamimidothioate hydrobromide], the remaining activity at 10 µM turned out to be 121% on IDO in A431 cells, 91% in assay [1], 63% in assay [2] and 71% on TDO in A172 cells.
For `N=C(N)SCc1cc(Br)ccc1C(=O)NCc1ccc(F)c(Cl)c1` [Compound 116, 5-Bromo-2-((3-chloro-4-fluorobenzyl)carbamoyl)benzyl carbamimidothioate hydrobromide] the same measures were 92%, 85%, 21% and 55%.
The like results for `N=C(N)SCc1ccc(Br)cc1C(=O)NCc1ccc(Br)cc1` [Compound 117, 4-Bromo-2-((4-bromobenzyl)carbamoyl)benzyl carbamimidothioate hydrobromide] were, in that order, 7%, 2%, 9% and 31%.
For `N#Cc1ccc(CNC(=O)c2cc(Br)ccc2CS/C(N)=N/c2ccc(F)c(Cl)c2)cc1` [Compound 118, 4-Bromo-2-((4-cyanobenzyl)carbamoyl)benzyl (E)-N′-(3-chloro-4-fluorophenyl)carbamimidothioate hydrobromide] the same measures were 3%, 15%, 35% and 20%.
In the case of `N#Cc1ccc(CNC(=O)c2cc(Br)ccc2CS/C(N)=N/c2ccc(Br)cc2)cc1` [Compound 119, 4-Bromo-2-((4-cyanobenzyl)carbamoyl)benzyl (E)-N′-(4-bromophenyl)carbamimidothioate hydrobromide], the remaining activity at 10 µM on IDO in A431 cells turned out to be 4%; in assay [1] it was 25%; in assay [2], 50%; at TDO in A172 cells, 12%.
Consider `Fc1ccc(CSC2=NCN(CC3CC3)CN2)c(CSC2=NCN(CC3CC3)CN2)c1` [Compound 120, 6,6′-(((4-Fluoro-1,2-phenylene)bis(methylene))bis(sulfanediyl))bis(3-(cyclopropylmethyl)-1,2,3,4-tetrahydro-1,3,5-triazine)], for which the remaining activity at 10 µM came to 14% at IDO in A431 cells, 41% in assay [1], 8% in assay [2] and 7% at TDO in A172 cells.
For `Fc1ccc(CSC2=NCN(CC3CCCCC3)CN2)c(CSC2=NCN(CC3CCCCC3)CN2)c1` [Compound 121, 6,6′-(((4-Fluoro-1,2-phenylene)bis(methylene))bis(sulfanediyl))bis(3-(cyclohexylmethyl)-1,2,3,4-tetrahydro-1,3,5-triazine)] the same measures were 14%, 29%, 7% and 11%.
The like results for `N/C(=N\c1ccc(F)c(Cl)c1)SCc1ccccc1CS/C(N)=N/c1ccc(F)c(Cl)c1` [Compound 122, 1,2-Phenylenebis(methylene) (E,E)-bis(N-(3-chloro-4-fluorophenyl)carbamimidothioate) dihydrobromide] were, in that order, 2%, -3%, 8% and 7%.
As for `N/C(=N\c1ccc(Cl)cc1)SCc1cc(Cl)c(Cl)cc1CS/C(N)=N/c1ccc(Cl)cc1` [Compound 123, (4,5-Dichloro-1,2-phenylene)bis(methylene) (E,E)-bis(N′-(4-chlorophenyl)carbamimidothioate) dihydrobromide], the remaining activity at 10 µM is 12% on IDO in A431 cells, -2% in assay [1], 10% in assay [2] and 4% at TDO in A172 cells.
With `COc1ccc(/N=C(\N)SCc2cc(Cl)c(Cl)cc2CS/C(N)=N/c2ccc(OC)cc2)cc1` [Compound 124, (4,5-Dichloro-1,2-phenylene)bis(methylene) (E,E)-bis(N′-(4-methoxyphenyl)carbamimidothioate) dihydrobromide], the remaining activity at 10 µM was 10% at IDO in A431 cells, -1% in assay [1], 20% in assay [2] and 0% at TDO in A172 cells.
For `N/C(=N\c1cccc(Cl)c1)SCc1cc(Cl)c(Cl)cc1CS/C(N)=N/c1cccc(Cl)c1` [Compound 125, (4,5-Dichloro-1,2-phenylene)bis(methylene) (E,E)-bis(N′-(3-chlorophenyl)carbamimidothioate) dihydrobromide] the same measures were 11%, -2%, 7% and 3%.
In the case of `N/C(=N\c1ccc(Br)cc1)SCc1ccc(F)cc1CS/C(N)=N/c1ccc(Br)cc1` [Compound 126, (4-Fluoro-1,2-phenylene)bis(methylene) (E,E)-bis(N′-(4-bromophenyl)carbamimidothioate) dihydrobromide], the remaining activity at 10 µM on IDO in A431 cells was 13%; in assay [1] it was -1%; in assay [2], 6%; on TDO in A172 cells, 10%.
The like results for `N/C(=N\c1ccc(F)cc1)SCc1ccc(F)cc1CS/C(N)=N/c1ccc(F)cc1` [Compound 127, (4-Fluoro-1,2-phenylene)bis(methylene) (E,E)-bis(N′-(4-fluorophenyl)carbamimidothioate) dihydrobromide] were, in that order, 8%, 0%, 12% and 10%.
The like results for `COc1ccc(/N=C(\N)SCc2ccc(F)cc2CS/C(N)=N/c2ccc(OC)cc2)cc1` [Compound 128, (4-Fluoro-1,2-phenylene)bis(methylene) (E,E)-bis(N′-(4-methoxyphenyl)carbamimidothioate) dihydrobromide] were, in that order, 11%, 3%, 14% and 8%.
The like results for `N/C(=N\c1ccc(F)c(Cl)c1)SCc1ccc(F)cc1CS/C(N)=N/c1ccc(F)c(Cl)c1` [Compound 129, (4-Fluoro-1,2-phenylene)bis(methylene) (E,E)-bis(N′-(3-chloro-4-fluorophenyl)carbamimidothioate) dihydrobromide] were, in that order, 7%, -2%, 8% and 14%.
Consider `N/C(=N\c1ccc(F)cc1F)SCc1ccc(F)cc1CS/C(N)=N/c1ccc(F)cc1F` [Compound 130, (4-Fluoro-1,2-phenylene)bis(methylene) (E,E)-bis(N′-(2,4-difluorophenyl)carbamimidothioate) dihydrobromide], for which the remaining activity at 10 µM was determined as 1% at IDO in A431 cells, 1% in assay [1], 8% in assay [2] and 9% at TDO in A172 cells.
Consider `N=C(N)SCc1cc(F)c(F)cc1CSC(=N)N` [Compound 131, (4,5-Difluoro-1,2-phenylene)bis(methylene) dicarbamimidothioate dihydrobromide], for which the remaining activity at 10 µM at IDO in A431 cells was determined as 5%; in assay [1], 7%; in assay [2], 3%; on TDO in A172 cells, 6%.
